From patent US20230210757A1, “IMPROVEMENTS IN OR RELATING TO ORGANIC COMPOUNDS” (Givaudan SA, priority 2020, published 2023)

Tests used:
[1] = test system: skin explants (Caucasian, Asian, African); test: Ex vivo whitening efficacy on skin explants (Fontana Masson staining, expert scoring of basal cells); assay type: cell-based, human; settings: topical daily 14 days, vs untreated, extract 3%, Phenylethyl resorcinol 0.5%, hydroquinone 2%
Procedure: Skin fragments from 3 Asian, 3 African and 3 Caucasian subjects were cut into 1 cm^2 pieces and washed three times using antibiotics. Subcutaneous fat and lower dermis were mechanically removed under a stereomicroscope using a surgical scalpel. Skin biopsies were placed with the epithelium uppermost at an air/liquid interface on culture inserts (filter pore size 12 μm; Costar, VWR International, Fontenay-sous-Bois, France). These inserts were set on twelve wells plate for 14 days at 37° C. in a humidified incubator with 5% CO2. Medium was added to the wells so that the surface of the medium was levelled with the filter. Organ cultures were conserved with Dulbecco's […] (Invitrogen Corporation, Paisley, UK) containing antibiotic, L-glutamine, bovine pituitary extract, growth factors and fetal calf serum (DAP, Neuf-Brisach, France). […] elongata extract 3% (unpurified extract), Phenylethyl resorcinol 0.5% and hydroquinone 2% (SIGMA H9003) as positive control were topically applied daily during 14 days on the epidermis of the skin fragments, in comparison with untreated skin. […] For testing the depigmentation product, the melanin pigment present in the melanocytes and in the contiguous keratinocytes of the basal cell layer of the epidermis from treated skin in comparison with untreated skin is evaluated. Samples were formalin-fixed at day 14 and paraffin-embedded Sections (4 μm) were then stained by Fontana Masson silver method for melanin (see example 4iii). A quantitative numeration of cells containing melanin pigments was made under an optical microscope at ×40 magnification on about 300 basal cells of the epidermis, Two types of cells were counted: • score 1: unpigmented cells or cells presenting rare melanin pigments isolated in the cytoplasm • score 3: cells presenting important melanin pigment in all over the cytoplasm Epidermal melanin content was calculated as the percentage of the epidermal cells in each scoring.

[2] = test system: pigmented ageing spots on face; test: Clinical test, face of Asian volunteers, spectrocolorimeter measurement; assay type: in vivo, human; settings: HEX cream 3% or Phenylethyl resorcinol cream 0.3% twice daily, after 28 and 56 days
Procedure: (§1) The study was a double-blind, randomized and placebo controlled study. The assessment was based on an inter-subject comparison between the results obtained with cream HEX at 3% (active product), cream Phenylethyl resorcinol at 0.3% and the cream placebo. The measurements were taken in controlled-atmosphere at a temperature of 21±1° C. and a humidity of 50±10%. This study was performed on 72 volunteers (healthy Asian woman aged from 45 to 85 years), having pigmented ageing spots on their faces.
(§2) The study was carried out on 2 groups of 36 volunteers each (72 volunteer in total). A cream formula was applied twice daily on face. Evaluation was carried out before treatment and after 28 and 56 days. Group 1 has applied placebo on one side of the face and HEX at 3% on the other side of the face Group 2 has tested HEX at 3% on one side of the face versus Phenylethyl Resorcinol at 0.3% on the other side of the face.
Skin colorimetric measurement was done with a MINOLTA CM700-d Spectrophotometer® equipped with a 8 mm diameter head. The Spectrophotometer® converts colours perceived by human to a digital code composed of three parameters:
L*: for clarity (from dark to light),
a*: for the green-to-red spectrum,
b*: for the blue-to-yellow spectrum.
a* and b* are chrominance parameters and L* is a luminance parameter. […]

[3] = test system: pigmented ageing spots on face; test: Clinical test, pigmented spots on face of Asian volunteers, VISIA ageing spot analysis; assay type: in vivo, human; settings: cream 0.3% twice daily
Procedure: as §1
as §2, with “the face. […]” for “the face.”
Under standard light, visible spots can be evaluated, in particular by visualisation of brown or red skin lesions including freckles, acne scars, hyper-pigmentation and vascular lesions. With cross polarized light in combination with Canfield's RBX® Technology brown spots can be evaluated, in particular by analysis of subsurface melanin conditions. […] The results are given in number of lesions, which is a count of lesions detected by the device, regardless of their size or intensity.

[4] = test system: pigmented ageing spots on hands; test: Clinical test, pigmented spots on hands of Caucasian volunteers, Mexameter analysis; assay type: in vivo, human; settings: cream 0.3% twice daily
Procedure: The study was a double-blind, randomized and placebo controlled study. The assessment was based on an intra-subject comparison between the results obtained with cream HEX at 3% (active product), cream Phenylethyl resorcinol at 0.3% and the cream placebo. The measurements were taken in controlled-atmosphere at a temperature of 21±1° C. and a humidity of 50*10%. This study was performed on 39 volunteers (healthy Caucasian woman aged from 50 to 75 years, mean age: 61.7±5.6 years) having pigmented ageing spots on their hands.
The study was carried out on 2 groups of around 20 volunteers each (39 volunteer in total aged from […]). A cream formula was applied twice daily on hands. Evaluation was carried out before treatment and after 28 and 56 days. Group 1 has applied placebo on one hand and HEX at 3% on the other hand, and group 2 has tested HEX at 3% on one hand versus Phenylethyl Resorcinol at 0.3% on the other hand.
The measurement is based on the absorption principle. The MEXAMETER MX 18 probe emits radiation of three defined wavelengths. A receiver measures the reflection of the light reflected by the skin. The position of the transmitter and receiver ensures that only diffuse light is measured. With a defined amount of emitted light the amount of light absorbed by the skin can be calculated. Melanin is measured by two wavelengths. […]

[5] = test system: hyperpigmentation spots on face; test: Clinical test, hyperpigmented spots on face of African volunteers, Mexameter analysis; assay type: in vivo, human
Procedure: The measurement is based on the absorption principle. The MEXAMETER MX 18 probe emits radiation of three defined wavelengths. A receiver measures the reflection of the light reflected by the skin. The position of the transmitter and receiver ensures that only diffuse light is measured. With a defined amount of emitted light the amount of light absorbed by the skin can be calculated. Melanin is measured by two wavelengths. The wavelengths were chosen according to the different absorption peaks of the melanin pigments. For the measurement of erythema (redness of skin), two different wavelengths are used to measure the absorption capacity of the epidermis. One of them corresponds to the absorption spectrum of haemoglobin. The other wavelength was chosen in order to have other pigments influencing the colour of the skin.
The study was a double-blind, randomized and placebo controlled study. The assessment was based on an inter-subject comparison between the results obtained with cream HEX at 3% (active product), cream Phenylethyl resorcinol at 0.3% and the cream placebo. The measurements were taken in controlled-atmosphere at a temperature of 20° C. and a humidity of 40%. This study was performed on 70 volunteers (aged from 19 to 57 years, having hyperpigmentation spots on their faces.
The study was carried out on 3 groups. A cream formula was applied twice daily on full face. Evaluation was carried out before treatment and after 28 and 56 days. Groups 1 and 2, with 25 volunteers each, have applied placebo and HEX at 3%, respectively, and group 3 with 20 volunteers has applied Phenylethyl Resorcinol at 0.3%.

SMILES	change of percentage of unpigmented cells ([1]; African skin explants)	change of percentage of very pigmented cells ([1]; African skin explants)	change of percentage of unpigmented cells ([1]; Asian skin explants)	change of percentage of very pigmented cells ([1]; Asian skin explants) [%]	change of percentage of unpigmented cells ([1]; Caucasian skin explants)	change of percentage of very pigmented cells ([1]; Caucasian skin explants)	b* parameter on face pigmented spots area [2]	reduction of brown spots compared with HEX [3]	reduction of visible spots compared with HEX at 3% [3]	reduction of skin redness compared with placebo [4]	melanin reduction efficacy compared with HEX at 3% ([4]; 28 and 56 days)	change of melanin content relative to D0 ([5]; HEX cream 3% or Phenylethyl Resorcinol cream 0.3% twice daily, after 56 days)	change of melanin content relative to D0 ([5]; cream 0.3% twice daily, after 28 days) [%]	change of melanin content versus placebo ([5]; cream 0.3%, after 28 days) [%]
Oc1ccc(O)cc1 [Hydroquinone, hydroquinone]	didn't show any significant results	didn't show any significant results	+54.1%	−25.8	didn't show any significant impact	didn't show any significant impact	–	–	–	–	–	–	–	–
CC(c1ccccc1)c1ccc(O)cc1O (centres unmarked) [Phenylethyl resorcinol, phenylethyl resorcinol]	+91.7%	−22.7%	+110.7%	−29.2	+38.8%	−4.2%	significant reduction of b* parameter	slightly better than HEX	efficacy very close to those obtained with HEX at 3%	same efficacy as what we obtained with the placebo	Same melanin reduction efficacy as with HEX at 3%	not maintained after 56 days	−2.1	−4.3
